Consider 59 compounds from patent US9458176B2, “Tetrahydroimidazo(1,5-D)[1,4]oxazepine derivative” (Eisai R&D Management Co., Ltd., priority 2013, dated 2016).

Molecules are shown by their SMILES.

human mGluR2, sequence (Q14416 19-872): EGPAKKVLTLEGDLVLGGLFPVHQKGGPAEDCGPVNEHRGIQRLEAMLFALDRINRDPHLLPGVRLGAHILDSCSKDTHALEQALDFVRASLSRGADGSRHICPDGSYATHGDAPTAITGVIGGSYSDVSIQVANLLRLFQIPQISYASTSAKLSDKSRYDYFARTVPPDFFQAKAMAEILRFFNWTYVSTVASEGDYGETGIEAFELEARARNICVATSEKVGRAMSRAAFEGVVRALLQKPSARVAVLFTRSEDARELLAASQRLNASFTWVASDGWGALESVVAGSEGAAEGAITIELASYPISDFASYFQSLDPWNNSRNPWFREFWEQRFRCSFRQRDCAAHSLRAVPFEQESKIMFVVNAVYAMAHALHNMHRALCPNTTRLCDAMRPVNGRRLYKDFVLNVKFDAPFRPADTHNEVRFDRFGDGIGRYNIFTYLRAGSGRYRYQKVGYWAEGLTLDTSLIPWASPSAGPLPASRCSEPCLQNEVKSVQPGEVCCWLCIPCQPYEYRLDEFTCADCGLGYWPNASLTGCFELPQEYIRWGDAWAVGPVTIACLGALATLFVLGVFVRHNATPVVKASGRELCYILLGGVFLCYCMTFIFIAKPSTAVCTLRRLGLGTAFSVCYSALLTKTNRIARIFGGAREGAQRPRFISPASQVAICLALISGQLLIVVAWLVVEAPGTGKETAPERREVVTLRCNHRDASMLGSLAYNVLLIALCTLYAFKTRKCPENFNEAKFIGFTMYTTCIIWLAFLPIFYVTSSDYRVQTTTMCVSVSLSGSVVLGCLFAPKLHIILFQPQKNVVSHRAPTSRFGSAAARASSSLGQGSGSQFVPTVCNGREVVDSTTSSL

For one assay, the target named is human mGluR2 (Homo sapiens (Human), UniProt Q14416). The experiment in a line: [35S]GTPγS binding assay (Affinity to mGluR2). It counts as biochemical. Particulars: cell membrane fraction of HEK293 cells stably expressing human mGluR2; glutamic acid 10 μM. In outline:
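Membranes from HEK293 cells stably co-expressing human mGluR2 and SLC1A3 (1.8–3 μg protein) preincubated with compound 30 min at RT, then stimulated with 10 μM glutamate 15 min; [35S]GTPγS (0.8 kBq) with WGA-SPA beads 1 h, buffer with 3 μM GDP, 100 mM NaCl, 1 mM MgCl2. IC50 from inhibition of glutamate-specific binding.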
With `COc1cc(-c2nc(-c3ccnc(C)c3)c3n2C[C@@H](CF)OCC3)ccc1C(F)(F)F` [Example 41, (S)-6-(fluoromethyl)-3-(3-methoxy-4-(trifluoromethyl)phenyl)-1-(2-methylpyridin-4-yl)-5,6,8,9-tetrahydroimidazo[1,5-d][1,4]oxazepine], the IC50 (as a rule, the concentration needed to halve the response being measured) came out at 4.1 nM.

As to `Cc1cc(-c2nc(-c3ccc(C(F)(F)F)c(C)c3)n3c2CCOCC3)cc(C)n1` [Example 113], the IC50 came out at 27 nM. Against the preceding compound, the IC50 is about 6.6-fold higher. With `COc1cc(-c2nc(-c3cc(C)nc(C)c3)c3n2CCOCC3)ccc1C` [Example 46], the 50% inhibitory concentration (IC50) came out at 65.6 nM. `Cc1cc(-c2nc(-c3ccc(F)c(OCC4CC4)c3)n3c2CCOCC3)cc(C)n1` [Example 94] gave an IC50 of 34.9 nM. The compound `Cc1cc(-c2nc(-c3ccc(OC(F)(F)F)c(C)c3)n3c2CCO[C@H](C)C3)cc(C)n1` [Example 67] registered an IC50 of 4.7 nM. Compound `Cc1cc(-c2nc(-c3ccc(Cl)c(C(F)(F)F)c3)n3c2CCOCC3)cc(C)n1` [Example 108] returned an IC50 of 19.2 nM. In turn, `Cc1cc(-c2nc(-c3ccc(OC(F)(F)F)cc3)n3c2CCO[C@H](CF)C3)cc(C)n1` [Example 69] had an IC50 of 20.9 nM.

With `COc1cc(-c2nc(-c3cc(C)nc(C)c3)c3n2CCOCC3)ccc1C(F)(F)F` [Example 122], the IC50 came out at 22.1 nM. As for `COc1cc(-c2nc(-c3ccc(Cl)c(OC)c3)n3c2CCO[C@H](C)C3)cc(C)n1` [Example 57], the IC50 is 28.5 nM. The same measure, in the same setting: under `C[C@@H]1Cn2c(-c3ccc(OC(F)(F)F)cc3)nc(-c3ccnc(CF)c3)c2CCO1` [Example 85] stands 29.7 nM; under `Cc1cc(-c2nc(-c3ccc(OC(F)(F)F)cc3)n3c2CCO[C@H](CF)C3)ccn1` [Example 70], 25.5 nM.

With `Cc1cc(-c2nc(-c3cccc(Cl)c3)n3c2CCO[C@H](C)C3)cc(C)n1` [Example 62], the IC50 is 37.7 nM. The IC50 values of the last two compounds are within 1.5-fold of each other. On to `Cc1cc(-c2nc(-c3ccc(OC(C)C)c(Cl)c3)n3c2CCO[C@H](CF)C3)cc(C)n1` [Example 38, (S)-3-(3-chloro-4-isopropoxyphenyl)-1-(2,6-dimethylpyridin-4-yl)-6-(fluoromethyl)-5,6,8,9-tetrahydroimidazo[1,5-d][1,4]oxazepine], for which the IC50 was determined as 5.4 nM. Still for that read-out and setting: under `Cc1cc(-c2nc(-c3ccc(F)c(OC(F)(F)F)c3)n3c2CCOCC3)cc(C)n1` [Example 45] stands 73.9 nM. On the same count and under the same terms, under `Cc1cc(-c2nc(-c3ccc(Cl)c(F)c3)n3c2CCO[C@H](C)C3)cc(C)n1` [Example 56] stands 21.9 nM; under `COc1ccc(-c2nc(-c3cc(C)nc(C)c3)c3n2C[C@@H](CF)OCC3)cc1Cl` [Example 36, (S)-3-(3-chloro-4-methoxyphenyl)-1-(2,6-dimethylpyridin-4-yl)-6-(fluoromethyl)-5,6,8,9-tetrahydroimidazo[1,5-d][1,4]oxazepine], 10 nM. Consider `Cc1cc(-c2nc(-c3ccc(OC(F)(F)F)c(C)c3)n3c2CCO[C@H](C)C3)ccn1` [Example 9, (R)-6-methyl-3-(3-methyl-4-(trifluoromethoxy)phenyl)-1-(2-methylpyridin-4-yl)-5,6,8,9-tetrahydroimidazo[1,5-d][1,4]oxazepine], for which the IC50 was found to be 1.9 nM.

As for `Cc1cc(-c2nc(-c3ccc(OC(F)(F)F)cc3)n3c2CCOCC3)cc(C)n1` [Example 42], the IC50 is 45.3 nM. With `Cc1cc(-c2nc(-c3ccc(OCc4ccccc4)c(F)c3)n3c2CCOCC3)cc(C)n1` [Example 49], the IC50 came to 11.4 nM. Still for that read-out and setting: under `Cc1cc(-c2nc(-c3ccc(F)c(OCC4CCC4)c3)n3c2CCOCC3)cc(C)n1` [Example 97] stands 25.4 nM; under `Cc1cc(-c2nc(-c3ccc(Cl)c(C(F)F)c3)n3c2CCOCC3)cc(C)n1` [Example 125], 16.5 nM; under `COc1cc(-c2nc(-c3ccnc(C)c3)c3n2C[C@@H](C)OCC3)ccc1C(F)(F)F` [Example 8, (R)-3-(3-methoxy-4-(trifluoromethyl)phenyl)-6-methyl-1-(2-methylpyridin-4-yl)-5,6,8,9-tetrahydroimidazo[1,5-d][1,4]oxazepine], 13.2 nM. The same measure, in the same setting: under `Cc1cc(-c2nc(-c3ccc(Cl)c(C)c3)n3c2CCO[C@H](CF)C3)ccn1` [Example 74] stands 35.3 nM; under `COc1cc(-c2nc(-c3ccnc(C)c3)c3n2C[C@@H](CF)OCC3)ccc1OC(F)(F)F` [Example 17, (S)-6-(fluoromethyl)-3-(3-methoxy-4-(trifluoromethoxy)phenyl)-1-(2-methylpyridin-4-yl)-5,6,8,9-tetrahydroimidazo[1,5-d][1,4]oxazepine], 3.8 nM. In turn, `Cc1cc(-c2nc(-c3ccc(OC(F)(F)F)cc3)n3c2CCO[C@H](C)C3)ccn1` [Example 50] came in with an IC50 of 14.2 nM. As for `Cc1cc(-c2nc(-c3ccc(Cl)c(C#N)c3)n3c2CCOCC3)cc(C)n1` [Example 111], the IC50 was found to be 25.2 nM.

The compound `COc1cc(-c2nc(-c3cc(C)nc(C)c3)c3n2C[C@@H](C)OCC3)ccc1OC(F)(F)F` [Example 25, (R)-1-(2,6-dimethylpyridin-4-yl)-3-(3-methoxy-4-(trifluoromethoxy)phenyl)-6-methyl-5,6,8,9-tetrahydroimidazo[1,5-d][1,4]oxazepine] had an IC50 of 3.2 nM.

Compound `CC[C@@H]1Cn2c(-c3ccc(Cl)c(OC)c3)nc(-c3cc(C)nc(C)c3)c2CCO1` [Example 77] showed a half-inhibitory concentration (IC50) of 11.5 nM.

The assay is the same for the next values; noted with them: cell membrane fraction of HEK293 cells stably expressing human mGluR2; glutamic acid 10 μM; inhibition of specific [35S]GTPγS binding.
In turn, `Cc1cc(-c2nc(-c3ccc(OC(F)(F)F)c(Cl)c3)n3c2CCO[C@H](C)C3)ccn1` [Example 153] yielded an IC50 of 3 nM. As for `CCc1ccc(-c2nc(-c3ccnc(C)c3)c3n2C[C@@H](C)OCC3)cc1OCC1CC1` [Example 221], the IC50 worked out at 26.7 nM. `Cc1cc(-c2nc(-c3ccc(OC(F)(F)F)c(CO)c3)n3c2CCO[C@H](C)C3)cc(C)n1` [Example 229] yielded an IC50 of 18 nM.

On to `Cc1cc(-c2nc(-c3ccc(C(F)(F)F)c(C)c3)n3c2CCO[C@H](CF)C3)ccn1` [Example 187], for which the IC50 was 19.3 nM. For the compound `Cc1cc(-c2nc(-c3ccc(F)c(Cl)c3)n3c2CCO[C@H](CF)C3)ccn1` [Example 172], the IC50 was 38.3 nM. Regarding `Cc1cc(-c2nc(-c3ccc(OC(F)F)c(C)c3)n3c2CCO[C@H](CF)C3)cc(CF)n1` [Example 207], the IC50 was 6 nM. Against the preceding compound, the IC50 is about 6.4-fold lower. On the same count and under the same terms, under `COc1cc(-c2nc(-c3cc(C)nc(C)c3)c3n2C[C@@H](CF)OCC3)ccc1OC(F)F` [Example 163] stands 15.8 nM; under `CCOc1cc(-c2nc(-c3ccnc(C)c3)c3n2CCOCC3)ccc1CC` [Example 214], 21 nM; under `Cc1cc(-c2nc(-c3ccc(C(F)F)c(Cl)c3)n3c2CCO[C@H](CF)C3)cc(C)n1` [Example 197], 15.1 nM. Same read-out and setting: under `Cc1cc(-c2nc(-c3ccc(C)c(OCC4CCOCC4)c3)n3c2CCO[C@H](C)C3)cc(C)n1` [Example 228] stands 82 nM; under `Cc1cc(-c2nc(-c3ccc(F)c(Cl)c3)n3c2CCO[C@H](C)C3)ccn1` [Example 145], 45.5 nM. Turning to `CCc1ccc(-c2nc(-c3cc(C)nc(C)c3)c3n2C[C@@H](C)OCC3)cc1OCC1CC1` [Example 222], the IC50 turned out to be 17.2 nM.

Consider `CCOc1cc(-c2nc(-c3ccnc(C)c3)c3n2C[C@@H](C)OCC3)ccc1C` [Example 223], for which the IC50 came out at 16.7 nM.

`Cc1cc(-c2nc(-c3ccc(OC(F)F)c(F)c3)n3c2CCO[C@H](C)C3)cc(C)n1` [Example 181] yielded an IC50 of 16.1 nM. `Cc1cc(-c2nc(-c3ccc(OC(F)(F)F)c(C)c3)n3c2CCO[C@H](C)C3)cc(CO)n1` [Example 179] returned an IC50 of 17.9 nM. Regarding `Cc1cc(-c2nc(-c3ccc(OC4CC4)c(OC(F)(F)F)c3)n3c2CCOCC3)cc(C)n1` [Example 144], the IC50 is 27.7 nM. The compound `Cc1cc(-c2nc(-c3ccc(OC(F)F)c(F)c3)n3c2CCO[C@H](C)C3)ccn1` [Example 182] had an IC50 of 19.3 nM. This IC50 and that of the compound before are within 1.5-fold of each other. With `COc1cc(-c2nc(-c3ccnc(C)c3)c3n2C[C@@H](C)OCC3)ccc1C(C)(F)F` [Example 240], the IC50 came to 46.9 nM. For the compound `Cc1cc(-c2nc(-c3ccc(OC(F)F)c(Cl)c3)n3c2CCO[C@H](CF)C3)cc(C)n1` [Example 233], the IC50 was found to be 2 nM. Against the preceding compound, the IC50 is about 23-fold lower. On the same count and under the same terms, under `Cc1cc(-c2nc(-c3ccc(OC(F)(F)F)c(C)c3)n3c2CCOCC3)cc(CF)n1` [Example 198] stands 13.2 nM; under `Cc1cc(-c2nc(-c3ccc(OC(F)(F)F)c(F)c3)n3c2CCO[C@H](C)C3)cc(CO)n1` [Example 180], 100 nM; under `Cc1cc(-c2nc(-c3ccc(F)c(C(F)(F)F)c3)n3c2CCO[C@H](CF)C3)cc(C)n1` [Example 173], 19.2 nM. `Cc1cc(-c2nc(-c3ccc(OC(F)(F)F)c(F)c3)n3c2CCO[C@H](CF)C3)ccn1` [Example 166]: the IC50 worked out at 15.2 nM. Same read-out and setting: under `Cc1cc(-c2nc(-c3ccc(OC4CC4)c(Cl)c3)n3c2CCO[C@H](CF)C3)cc(C)n1` [Example 167] stands 1.8 nM; under `COc1cc(-c2nc(-c3cc(C)nc(CF)c3)c3n2C[C@@H](CF)OCC3)ccc1OC(F)F` [Example 209], 5.1 nM; under `Cc1cc(-c2nc(-c3ccc(OCCF)c(Cl)c3)n3c2CCO[C@H](C)C3)cc(C)n1` [Example 239], 11.9 nM. The compound `Cc1cc(-c2nc(-c3ccc(OC(F)F)c(Cl)c3)n3c2CCOCC3)cc(C)n1` [Example 215] registered an IC50 of 58.1 nM.

With `Cc1cc(-c2nc(-c3ccc(OC(F)F)c(C)c3)n3c2CCO[C@H](C)C3)cc(CF)n1` [Example 199], the IC50 turned out to be 5.2 nM. `CCOc1ccc(-c2nc(-c3cc(C)nc(C)c3)c3n2CCOCC3)cc1Cl` [Example 216] registered an IC50 of 48 nM.

The compound `COc1ccc(-c2nc(-c3cc(C)nc(CF)c3)c3n2C[C@@H](C)OCC3)cc1OC(F)(F)F` [Example 210] displayed an IC50 of 4.7 nM. Against the preceding compound, the IC50 is about 10-fold lower. Regarding `Cc1cc(-c2nc(-c3ccc(OC(F)(F)F)c(CO)c3)n3c2CCO[C@H](C)C3)ccn1` [Example 230], the concentration for half-maximal inhibition (IC50) turned out to be 19.8 nM. Compared with the last compound, the IC50 is about 4.2-fold higher.
